# Measured values published in patent publication US6897237B2, “MMP-12 inhibitors” (Shionogi & Co. Ltd., priority 2000, dated 2005).
# What was measured:
# [1] = target: T1, MMP-1 (Homo sapiens, UniProt P03956); assay: Assay for inhibitory activities on MMPs (fluorogenic peptide substrate): MMP-1; assay type: biochemical; conditions: substrate MOCAc-Pro-Leu-Gly-Leu-A2Pr(DNP)-Ala-Arg-NH2
# T1 construct: purchased Yagai
# T1 sequence (P03956 100-469): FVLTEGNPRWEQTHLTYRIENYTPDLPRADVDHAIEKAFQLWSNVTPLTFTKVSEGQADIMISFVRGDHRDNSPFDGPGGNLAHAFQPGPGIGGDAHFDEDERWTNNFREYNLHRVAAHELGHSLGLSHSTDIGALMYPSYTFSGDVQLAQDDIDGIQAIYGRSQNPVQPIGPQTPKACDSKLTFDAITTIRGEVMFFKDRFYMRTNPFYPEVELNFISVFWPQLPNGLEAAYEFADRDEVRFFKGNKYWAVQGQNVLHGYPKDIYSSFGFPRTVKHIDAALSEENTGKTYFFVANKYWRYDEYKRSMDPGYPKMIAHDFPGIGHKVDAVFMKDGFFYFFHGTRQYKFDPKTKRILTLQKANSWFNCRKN
# Description: MMP-1 was purchased from Yagai.
# (§1) The enzymatic activity on MMPs was analyzed by the method described in “C. Graham Knight, Frances Willenbrock and Gillian Murphy: A novel coumarin-labelled peptide for sensitive continuous assays of the matrix metalloproteinases: FEBS LETT., 296, (1992), 263-266”. The substrate: MOCAc-Pro-Leu-Gly-Leu-A2Pr(DNP)-Ala-Arg-NH2 was purchased from Peptide Institute, Inc., Osaka, Japan. The measurement of the inhibitory activities (IC50) was carried out by the following four methods;
# (§2) (A) Reaction with substrate, enzyme (MMPs) and inhibitor
# (§3) (B) Reaction with substrate and inhibitor, without enzyme
# (§4) (C) Reaction with substrate and enzyme (MMPs), without inhibitor
# (§5) (D) Reaction with substrate only
# (§6) IC50 values were calculated by using the following formula and each fluorescence values of above four methods (A to D).
# (§7) % inhibition={1−(A−B)/(C−D)}×100
# (§8) IC50 means the concentration required to inhibit 50% of the enzyme activity.
# [2] = target: T2, MMP-12 catalytic domain (Homo sapiens, UniProt P39900); assay: Assay for inhibitory activities on MMPs (fluorogenic peptide substrate): MMP-12; assay type: biochemical; conditions: substrate MOCAc-Pro-Leu-Gly-Leu-A2Pr(DNP)-Ala-Arg-NH2
# T2 construct: catalytic domain(^100Phe˜^263Gly); His-tag; enterokinase digestion-site; made in house; host or cells: Escherichia coli
# T2 sequence (P39900 100-263): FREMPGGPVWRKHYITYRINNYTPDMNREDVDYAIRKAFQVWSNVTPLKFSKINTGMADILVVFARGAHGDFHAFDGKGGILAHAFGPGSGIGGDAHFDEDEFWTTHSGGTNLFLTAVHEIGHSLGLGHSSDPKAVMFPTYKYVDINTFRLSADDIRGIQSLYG
# Description: (§9) In regard to MMP-12, catalytic domain(^100Phe˜^263Gly) was amplified with RT-PCR from Human Placenta Total RNA. This was cloned in Escherichia coli expression vector pTrc99AHE inserted with His-tag sequence and enterokinase digestion-site, induced and expressed by IPTG (Isopropyl-β-D-thiogalactopyranoside) and expressed in a insoluble fraction. Isolation of MMP-12 from a insoluble fraction was carried out by dissolving in modifier (6M urea) by a usual method and purification with metal chelate chromatography (Ni Chelateing Sepharose). And then removing modifier (6M urea) with dialysis and refolding of the enzyme spontaneously gave activated MMP-12.
# as §1, §2, §3, §4, §5, §6, §7, §8
# [3] = test system: Sprague-Dawley male rats exposed to cigarette smoke; assay: Cigarette smoke exposure in rats, lung mechanics; assay type: in vivo, rat; conditions: 30 mg/kg p.o. twice daily
# Description: Sprague-Dawley male rats (390-430 g initial body weight) were exposed daily to smoke from commercial filtered cigarettes (30 cigarettes/rat/day, 5 days/week, for 7 to 8 weeks) with a smoke-generating and whole-body exposure system. The animals received 30 mg/kg p.o. twice daily of compound (B-6), which was suspended with 0.5% methyl cellulose. Vehicle animals received 2 ml/kg of 0.5% methyl cellulose. At 16-24 hr after the last exposure with cigarette smoke, anesthesia was induced with intraperitoneal injection of 40 mg/kg of pentobarbital sodium. Immediately after muscle relaxation with intravenous pancuronium bromide (0.3 mg/rat), animals were mechanically ventilated with a pressure-limited ventilator and were evaluated dynamic compliance. After exsanguination, the lung was attached to a glass syringe via a connector tube and continuously inflated through the airway to a transpulmonary pressure of 30 cmH2O, deflated them to a Ptp of 0 cmH2O, and aspirated them to a Ptp of −20 cmH2O. The change of Ptp and lung volume was monitored and recorded as the deflation pressure-volume (P-V) curve. Static lung compliance defined as the slope of steep portion of the deflation P-V curve was evaluated. Inspiratory capacity (IC) defined as the difference in lung volume between total lung capacity at a Ptp of 25 cmH2O and functional residual capacity at a Ptp of 0 cmH2O was evaluated.
# Data are expressed as means ±S.D. Statistical analysis was performed with one-sided Student's t-test. A value of P<0.05 was considered significant.
# [4] = target: T3, MMP-2 (Homo sapiens, UniProt P08253); assay: Assay for inhibitory activities on MMPs (fluorogenic peptide substrate): MMP-2; assay type: biochemical; conditions: substrate MOCAc-Pro-Leu-Gly-Leu-A2Pr(DNP)-Ala-Arg-NH2
# T3 construct: purchased Calbiochem-Novabiochem International, Inc
# T3 sequence (P08253 110-660): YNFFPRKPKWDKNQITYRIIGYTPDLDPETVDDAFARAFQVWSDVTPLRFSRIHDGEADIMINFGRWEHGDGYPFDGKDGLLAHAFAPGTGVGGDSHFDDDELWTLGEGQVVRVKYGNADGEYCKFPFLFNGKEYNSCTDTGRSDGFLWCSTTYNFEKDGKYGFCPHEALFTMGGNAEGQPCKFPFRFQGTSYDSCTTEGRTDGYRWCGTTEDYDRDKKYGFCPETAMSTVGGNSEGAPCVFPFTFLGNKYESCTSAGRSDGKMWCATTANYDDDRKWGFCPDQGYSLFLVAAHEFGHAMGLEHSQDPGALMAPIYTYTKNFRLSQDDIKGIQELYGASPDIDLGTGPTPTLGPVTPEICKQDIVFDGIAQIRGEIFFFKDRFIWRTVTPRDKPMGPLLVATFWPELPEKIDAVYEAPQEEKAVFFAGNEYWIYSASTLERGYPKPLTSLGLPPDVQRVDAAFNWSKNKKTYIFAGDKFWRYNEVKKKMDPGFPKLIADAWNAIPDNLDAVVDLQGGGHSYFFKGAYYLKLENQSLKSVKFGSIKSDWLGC
# Description: MMP-2 was purchased from Calbiochem-Novabiochem International, Inc.
# as §1, §2, §3, §4, §5, §6, §7, §8
# [5] = target: T4, MMP-13 catalytic domain (Homo sapiens, UniProt P45452); assay: Assay for inhibitory activities on MMPs (fluorogenic peptide substrate): MMP-13; assay type: biochemical; conditions: substrate MOCAc-Pro-Leu-Gly-Leu-A2Pr(DNP)-Ala-Arg-NH2
# T4 construct: catalytic domain (^104Tyr˜^267Gly); His-tag; enterokinase digestion-site; made in house; host or cells: Escherichia coli
# Description: as §9, with “MMP-13, mRNA was prepared from carcinoma cell SW1353 derived from human cartilage stimulate by IL-1, TNF and” for “MMP-12,”, “domain (^104Tyr˜^267Gly)” for “domain(^100Phe˜^263Gly)”, “RT-PCR.” for “RT-PCR from Human Placenta Total RNA.”, “MMP-1.3” for “MMP-12”, “dialyze” for “dialysis”, “MMP-13.” for “MMP-12.”
# as §1, §2, §3, §4, §5, §6, §7, §8
# [6] = cigarette smoke exposure 7 to 8 weeks, means ± S.D., n = 7
smiles,measurement,setting,value
C[C@@H](NS(=O)(=O)c1ccc(C#Cc2ccc3ccccc3c2)s1)C(=O)O [Compound B-6],IC50,[1],> 10000 nM
same,IC50,[2],23 nM
same,effect on increase of dynamic compliance by cigarette smoke exposure (in words),[3],tended to attenuate the increase
same,effect on increase of inspiratory capacity by cigarette smoke exposure (in words),[3],tended to attenuate the increase
same,effect on increase of static lung compliance by cigarette smoke exposure (in words),[3],significantly reduced the increase
same,Inspiratory capacity,[3]; [6],21.76 ± 1.85 mL/kg
same,dynamic compliance,[3]; [6],0.96 ± 0.17 ml/cmH2O/kg
same,Static lung compliance,"[3]; cigarette smoke exposure 7 to 8 weeks, means ± S.D., n = 7, P < 0.05 vs. Cigarette smoke exposure",2.05 ± 0.25 ml/cmH2O/kg
same,IC50,[4],350 nM
same,IC50,[5],840 nM
